From PubChem BioAssay (NCI)
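Where inhibition never reached the appropriate level, the endpoint shown equals the highest concentration tested. Otherwise, values were interpolated linearly from a five-concentration, 48-hour dose response in 96-well plates. At the GI50, growth is halved. TGI denotes the concentration required for complete inhibition of growth.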

Columns and labels:
Assay in all cases: growth of human tumour cells (NCI), 48 h
HCT-15 colon = test system: HCT-15 colon
PC-3 prostate = test system: PC-3 prostate
NCI-H460 lung = test system: NCI-H460 lung
K-562 leukemia = test system: K-562 leukemia
OVCAR-4 ovarian = test system: OVCAR-4 ovarian
DU-145 prostate = test system: DU-145 prostate
SNB-75 CNS = test system: SNB-75 CNS
SF-295 CNS = test system: SF-295 CNS
A549 NSCLC = test system: A549 NSCLC
ACHN renal = test system: ACHN renal
HT29 colon = test system: HT29 colon
NCI-H522 lung = test system: NCI-H522 lung
HL-60(TB) leukemia = test system: HL-60(TB) leukemia
SK-MEL-28 melanoma = test system: SK-MEL-28 melanoma
COLO 205 colon = test system: COLO 205 colon
U251 CNS = test system: U251 CNS
MALME-3M melanoma = test system: MALME-3M melanoma
HOP-92 NSCLC = test system: HOP-92 NSCLC
CAKI-1 renal = test system: CAKI-1 renal
IGROV1 ovarian = test system: IGROV1 ovarian
SK-MEL-5 melanoma = test system: SK-MEL-5 melanoma
MOLT-4 leukemia = test system: MOLT-4 leukemia
MCF7 breast = test system: MCF7 breast
BT-549 breast = test system: BT-549 breast
SK-OV-3 ovarian = test system: SK-OV-3 ovarian
HOP-62 NSCLC = test system: HOP-62 NSCLC
SK-MEL-2 melanoma = test system: SK-MEL-2 melanoma
HCT-116 colon = test system: HCT-116 colon
TK-10 renal = test system: TK-10 renal
T-47D breast = test system: T-47D breast
MDA-MB-468 breast = test system: MDA-MB-468 breast
OVCAR-5 ovarian = test system: OVCAR-5 ovarian
NCI-H226 lung = test system: NCI-H226 lung
MDA-MB-231 breast = test system: MDA-MB-231 breast
SF-268 CNS = test system: SF-268 CNS
CCRF-CEM leukemia = test system: CCRF-CEM leukemia
SN12C renal = test system: SN12C renal
UACC-257 melanoma = test system: UACC-257 melanoma
LOX IMVI melanoma = test system: LOX IMVI melanoma
EKVX NSCLC = test system: EKVX NSCLC
HS 578T breast = test system: HS 578T breast
HCC-2998 colon = test system: HCC-2998 colon
NCI-H23 lung = test system: NCI-H23 lung
RPMI-8226 leukemia = test system: RPMI-8226 leukemia
OVCAR-8 ovarian = test system: OVCAR-8 ovarian
NCI/ADR-RES ovarian = test system: NCI/ADR-RES ovarian
UO-31 renal = test system: UO-31 renal
UACC-62 melanoma = test system: UACC-62 melanoma
M14 melanoma = test system: M14 melanoma
SF-539 CNS = test system: SF-539 CNS
A498 renal = test system: A498 renal
SW-620 colon = test system: SW-620 colon
786-0 renal = test system: 786-0 renal
SR leukemia = test system: SR leukemia
KM12 colon = test system: KM12 colon
MDA-MB-435 = test system: MDA-MB-435
OVCAR-3 ovarian = test system: OVCAR-3 ovarian
SNB-19 CNS = test system: SNB-19 CNS
RXF 393 renal = test system: RXF 393 renal

Cc1ccc(-c2nc(Nc3ccccc3C(=O)O)c3ccccc3n2)cc1
GI50 (HCT-15 colon): 5.83 µM
TGI (HCT-15 colon): 28.7 µM
GI50 (PC-3 prostate): 12.7 µM
TGI (PC-3 prostate): > 100 µM
GI50 (NCI-H460 lung): 8.52 µM
TGI (NCI-H460 lung): 27.7 µM
GI50 (K-562 leukemia): 7.05 µM
TGI (K-562 leukemia): > 100 µM
GI50 (OVCAR-4 ovarian): 8.77 µM
TGI (OVCAR-4 ovarian): > 100 µM
GI50 (DU-145 prostate): 17.7 µM
TGI (DU-145 prostate): > 100 µM
GI50 (SNB-75 CNS): 1.36 µM
TGI (SNB-75 CNS): 80.3 µM
GI50 (SF-295 CNS): 7.04 µM
TGI (SF-295 CNS): 27 µM
GI50 (A549 NSCLC): 8.31 µM
TGI (A549 NSCLC): > 100 µM
GI50 (ACHN renal): 6.44 µM
TGI (ACHN renal): 91.1 µM
GI50 (HT29 colon): 17.9 µM
TGI (HT29 colon): > 100 µM
GI50 (NCI-H522 lung): 4.35 µM
TGI (NCI-H522 lung): 27.1 µM
GI50 (HL-60(TB) leukemia): 12.9 µM
TGI (HL-60(TB) leukemia): 75.4 µM
GI50 (SK-MEL-28 melanoma): 15.9 µM
TGI (SK-MEL-28 melanoma): 97.4 µM
GI50 (COLO 205 colon): 17.8 µM
TGI (COLO 205 colon): 41 µM
GI50 (U251 CNS): 5.58 µM
TGI (U251 CNS): 35 µM
GI50 (MALME-3M melanoma): 15.6 µM
TGI (MALME-3M melanoma): 64.5 µM
GI50 (HOP-92 NSCLC): 2.85 µM
TGI (HOP-92 NSCLC): 29.3 µM
GI50 (CAKI-1 renal): 13.8 µM
TGI (CAKI-1 renal): > 100 µM
GI50 (IGROV1 ovarian): 19.1 µM
TGI (IGROV1 ovarian): 87.1 µM
GI50 (SK-MEL-5 melanoma): 5.32 µM
TGI (SK-MEL-5 melanoma): 20.3 µM
GI50 (MOLT-4 leukemia): 11.7 µM
TGI (MOLT-4 leukemia): > 100 µM
GI50 (MCF7 breast): 9.41 µM
TGI (MCF7 breast): 89.9 µM
GI50 (BT-549 breast): 14.6 µM
TGI (BT-549 breast): 33.8 µM
GI50 (SK-OV-3 ovarian): 11.9 µM
TGI (SK-OV-3 ovarian): 55.3 µM
GI50 (HOP-62 NSCLC): 10.8 µM
TGI (HOP-62 NSCLC): 33.7 µM
GI50 (SK-MEL-2 melanoma): 3.65 µM
TGI (SK-MEL-2 melanoma): 15.6 µM
GI50 (HCT-116 colon): 10.1 µM
TGI (HCT-116 colon): 36.1 µM
GI50 (TK-10 renal): 29.2 µM
TGI (TK-10 renal): > 100 µM
GI50 (T-47D breast): 6.29 µM
TGI (T-47D breast): 70 µM
GI50 (MDA-MB-468 breast): 8.29 µM
TGI (MDA-MB-468 breast): 42.3 µM
GI50 (OVCAR-5 ovarian): 21.8 µM
TGI (OVCAR-5 ovarian): 68.9 µM
GI50 (NCI-H226 lung): 10.2 µM
TGI (NCI-H226 lung): 54.2 µM
GI50 (MDA-MB-231 breast): 17.2 µM
TGI (MDA-MB-231 breast): 59.7 µM
GI50 (SF-268 CNS): 14.3 µM
TGI (SF-268 CNS): > 100 µM
GI50 (CCRF-CEM leukemia): 5.72 µM
TGI (CCRF-CEM leukemia): > 100 µM
GI50 (SN12C renal): 11 µM
TGI (SN12C renal): 60.4 µM
GI50 (UACC-257 melanoma): 15.3 µM
TGI (UACC-257 melanoma): 90.3 µM
GI50 (LOX IMVI melanoma): 10.2 µM
TGI (LOX IMVI melanoma): 31.6 µM
GI50 (EKVX NSCLC): 8.89 µM
TGI (EKVX NSCLC): 56.2 µM
GI50 (HS 578T breast): 10.2 µM
TGI (HS 578T breast): 67 µM
GI50 (HCC-2998 colon): 12.4 µM
TGI (HCC-2998 colon): 36 µM
GI50 (NCI-H23 lung): 15.7 µM
TGI (NCI-H23 lung): 44.4 µM
GI50 (RPMI-8226 leukemia): 4.44 µM
TGI (RPMI-8226 leukemia): > 100 µM
GI50 (OVCAR-8 ovarian): 18.2 µM
TGI (OVCAR-8 ovarian): > 100 µM
GI50 (NCI/ADR-RES ovarian): 16.8 µM
TGI (NCI/ADR-RES ovarian): 98.5 µM
GI50 (UO-31 renal): 7.33 µM
TGI (UO-31 renal): 77.9 µM
GI50 (UACC-62 melanoma): 10.2 µM
TGI (UACC-62 melanoma): 27 µM
GI50 (M14 melanoma): 15.5 µM
TGI (M14 melanoma): 77.4 µM
GI50 (SF-539 CNS): 11.9 µM
TGI (SF-539 CNS): 28.3 µM
GI50 (A498 renal): 19.9 µM
TGI (A498 renal): 58.1 µM
GI50 (SW-620 colon): 18.2 µM
TGI (SW-620 colon): > 100 µM
GI50 (786-0 renal): 17.1 µM
TGI (786-0 renal): > 100 µM
GI50 (SR leukemia): 10.3 µM
TGI (SR leukemia): > 100 µM
GI50 (KM12 colon): 13.7 µM
TGI (KM12 colon): 81.2 µM
GI50 (MDA-MB-435): 13.9 µM
TGI (MDA-MB-435): 87.2 µM
GI50 (OVCAR-3 ovarian): 13.1 µM
TGI (OVCAR-3 ovarian): 51.3 µM
GI50 (SNB-19 CNS): 8.09 µM
TGI (SNB-19 CNS): 81.7 µM
GI50 (RXF 393 renal): 13.1 µM
TGI (RXF 393 renal): 65.9 µM
